For assay [1], the target named is T1, Peroxiredoxin-1 (Homo sapiens) (UniProt Q06830).
T1 sequence (whole entry): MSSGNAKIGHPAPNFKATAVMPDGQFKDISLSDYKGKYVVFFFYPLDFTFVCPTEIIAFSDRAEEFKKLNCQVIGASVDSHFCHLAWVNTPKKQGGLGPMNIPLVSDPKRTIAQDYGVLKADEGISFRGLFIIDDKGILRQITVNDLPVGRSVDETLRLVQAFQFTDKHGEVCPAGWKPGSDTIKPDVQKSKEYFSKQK
The assay is described as follows: Binding affinity to PRDX1 in human DOHH-2 cells by MS analysis. It is filed as cell-based.

Assay [2] has as its system DOHH-2. The assay can be described thus: Cytotoxicity against human DOHH-2 cells measured after 72 hrs. The class given is functional, cell-based.
The target of assay [3] is Tubulin alpha (Homo sapiens) (UniProt P0DPH7+P68366+Q71U36+P68363+Q9BQE3+Q6PEY2+A6NHL2+Q9NY65). The assay is described as follows: Binding affinity to alpha-tubulin in human DOHH-2 cells by MS analysis. The class given is cell-based.
The target of assay [4] is T2, Protein disulfide-isomerase A3 (Homo sapiens) (UniProt P30101).
T2 sequence (whole entry): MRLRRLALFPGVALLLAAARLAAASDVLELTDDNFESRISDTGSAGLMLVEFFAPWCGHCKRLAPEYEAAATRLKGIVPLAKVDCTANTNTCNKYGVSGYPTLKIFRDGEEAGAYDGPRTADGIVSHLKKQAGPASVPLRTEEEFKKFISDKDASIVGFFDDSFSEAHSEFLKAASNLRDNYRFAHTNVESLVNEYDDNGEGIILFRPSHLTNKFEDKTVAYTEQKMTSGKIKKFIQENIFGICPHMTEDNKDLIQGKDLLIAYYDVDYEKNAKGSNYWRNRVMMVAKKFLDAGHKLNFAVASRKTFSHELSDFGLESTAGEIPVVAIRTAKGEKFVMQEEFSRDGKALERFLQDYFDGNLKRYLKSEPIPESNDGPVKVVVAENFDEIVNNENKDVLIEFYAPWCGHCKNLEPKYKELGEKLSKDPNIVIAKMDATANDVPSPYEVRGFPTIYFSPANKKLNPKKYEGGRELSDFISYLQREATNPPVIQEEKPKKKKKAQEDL
The assay can be described thus: Binding affinity to PDIA3 in human MDA-MB-453 cells measured after 6 hrs by pull-down assay. The class given is cell-based. As to conditions: dose <= 20.0 µM, DDE = dose-dependent effect.

In assay [5] the target is T3, Glutathione S-transferase omega-1 (Homo sapiens) (UniProt P78417).
T3 sequence (whole entry): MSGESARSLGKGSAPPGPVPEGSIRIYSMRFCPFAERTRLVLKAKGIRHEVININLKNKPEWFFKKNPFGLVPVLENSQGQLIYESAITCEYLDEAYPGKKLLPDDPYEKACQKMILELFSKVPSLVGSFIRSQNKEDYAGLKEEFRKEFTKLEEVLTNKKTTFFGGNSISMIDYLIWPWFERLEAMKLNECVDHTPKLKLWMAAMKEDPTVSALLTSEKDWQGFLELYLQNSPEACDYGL
The assay is described as follows: Binding affinity to GSTO1 in human DOHH-2 cells measured after 6 hrs by pull-down assay. It is filed as cell-based. Conditions: DDE = dose-dependent effect.

Assay [6] is filed under the species Homo sapiens. The assay can be described thus: Binding affinity to human HSP70 SBDalpha domain (537 to 610 residues) C574S mutant assessed as Cys603 adduct formation by size exclusion chromatography. For orientation: Size exclusion chromatography separates by hydrodynamic size, large species first.
In assay [7] the test system is DOHH-2. The assay is described as follows: Up regulation of HSP70 expression in human DOHH-2 cells at 0.5 to 8 uM measured after 24 hrs by Western blot analysis. It is filed as functional, cell-based. Conditions: dose 0.5-8 µM. On the technique in general: In western blotting, separated proteins are transferred to a membrane and probed.
The test system of assay [8] is DOHH-2. The assay is described as follows: Up regulation of HSP90alpha expression in human DOHH-2 cells at 0.5 to 8 uM measured after 24 hrs by Western blot analysis. It is filed as functional, cell-based. Conditions: dose 0.5-8 µM.
The species entered for assay [9] is Homo sapiens. The assay is described as follows: Binding affinity to ADP-bound full-length human HSP70 assessed as cysteine adduct formation at SBDalpha domain by measuring half life at 1 mM by fluorescence spectra analysis.
Assay [10] addresses T4, Thioredoxin-dependent peroxide reductase, mitochondrial (Homo sapiens) (UniProt P30048).
T4 sequence (whole entry): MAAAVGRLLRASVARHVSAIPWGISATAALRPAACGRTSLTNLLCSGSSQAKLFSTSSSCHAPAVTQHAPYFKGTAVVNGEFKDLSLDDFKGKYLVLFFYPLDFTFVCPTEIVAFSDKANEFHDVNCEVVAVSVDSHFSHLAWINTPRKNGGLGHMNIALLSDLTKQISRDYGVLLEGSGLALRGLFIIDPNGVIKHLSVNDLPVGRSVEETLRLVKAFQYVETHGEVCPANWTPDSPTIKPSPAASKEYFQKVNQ
The assay is described as follows: Binding affinity to PRDX3 in human DOHH-2 cells by MS analysis. The class given is cell-based.

The next assay relates to Jurkat. The assay can be described thus: Cytotoxicity against human Jurkat T cells up to 20 uM measured after 24 hrs. It is filed as functional, cell-based.
The target of assay [11] is T5, Peroxiredoxin-5, mitochondrial (Homo sapiens) (UniProt P30044).
T5 sequence (whole entry): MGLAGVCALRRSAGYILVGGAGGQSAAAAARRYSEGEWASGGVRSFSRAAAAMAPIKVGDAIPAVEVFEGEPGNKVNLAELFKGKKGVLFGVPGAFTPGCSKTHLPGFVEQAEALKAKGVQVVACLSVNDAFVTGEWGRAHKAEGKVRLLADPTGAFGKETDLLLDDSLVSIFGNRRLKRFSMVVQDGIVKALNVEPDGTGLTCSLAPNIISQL
The assay can be described thus: Binding affinity to PRDX5 in human DOHH-2 cells measured after 6 hrs by pull-down assay. As to conditions: DDE = dose-dependent effect. The class given is cell-based.

The test system of assay [12] is DOHH-2. The assay is described as follows: Up regulation of HSP70 expression in human DOHH-2 cells at 8 uM measured after 4 to 24 hrs by Western blot analysis. It is filed as functional, cell-based. As to conditions: time 4-24 hrs.
Assay [13] is filed under the species Homo sapiens. The assay is described as follows: Binding affinity to ADP-bound full-length human HSP70 assessed as Cys603 adduct formation at SBDalpha domain by LC-MS/MS analysis.
Assay [14] deals with Tubulin beta (Homo sapiens) (UniProt P68371+Q9H4B7+Q13509+P04350+Q3ZCM7+P07437+Q13885+Q9BVA1+Q9BUF5+A6NNZ2). The assay can be described thus: Binding affinity to beta-tubulin in human MDA-MB-453 cells measured after 6 hrs by pull-down assay. The class given is cell-based. As to conditions: dose <= 20.0 µM, DDE = dose-dependent effect.

Here are results for 1 compound from ChEMBL document CHEMBL5143564, “PES derivative PESA is a potent tool to globally profile cellular targets of PES” (Bioorg Med Chem Lett, 2022).

Molecules are shown by their SMILES. Active and inactive are the calls of the source. The calls are words filed in the database; no cut-off is given here.

On to `C#Cc1cccc(C#CS(N)(=O)=O)c1`, for which the outcome (in assay [1]; in the assay on DOHH-2 [2]; in assay [3]; in the assay filed under Homo sapiens [6]; in the assay on DOHH-2 [7]; in the assay with DOHH-2 [8]) was Active. For the same compound, the outcome (in [10]; in the assay on Jurkat; with DOHH-2 [12]; in the assay filed under Homo sapiens [13]) was Active. In addition, the Activity entry in [4], in assay [5], in assay [11] and in assay [14] was “Dde” each time. In addition, the T1/2 in the assay listed under Homo sapiens [9] amounted to 1.53 h.
